{"source": "patent US20220218714A1", "about": "“METHOD OF TREATING CANCER” (Epizyme, Inc., priority 2013, published 2022)", "key": {"[1]": {"test_system": "H3K27me3 in HS-SY-II cells", "test": "H3K27 methylation alterations, ELISA of extracted histones", "format": "cell-based, human", "conditions": "96 hours treatment", "method": "(§1) HS-SY-II and SW982 cells were treated with either DMSO or Compound A starting at 40 nmol/L and decreasing in fourfold dilutions for 96 hours. Cells were washed by ice cold PBS, harvested by cell scraper, and lysed with 100 μL of nuclear extraction buffer (10 mM Tris-HCl, 10 mM MgCl2, 25 mM KCl, 1% Triton X-100, 8.6% Sucrose, plus × Halt Protease inhibitor cocktail (1861281, Thermo Scientific). Nuclei were collected by centrifugation at 600 g for 5 minutes at 4° C. and washed once with ice cold PBS. Supernatant was removed and histones extracted for one hour with 100 μL of 0.4 N cold sulfuric acid. Extracts were clarified by centrifugation at 10,000 g for 10 minutes at 4° C. and transferred to a fresh microcentrifuge tube containing 1 mL of ice cold acetone. Histones were precipitated at −20° C. for overnight, pelleted by centrifugation at 10,000 g for 10 minutes and resuspended in 100 μl of water. Histones were quantified using the BCA protein assay (23225, Pierce). The diluted histones were coated on Immulon 4HBX plates (3855, Thermo Scientific) overnight and ELISA was performed. […] Subsequently, the developed colors in the wells were measured using a plate spectrophotometer (SpectraMax 250, Molecular Devices) at 450 nm (reference wavelength 650 nm).\n(§2) The range of ICso values (two independent experiments), shown in FIG. 6B, were determined by GraphPad Prism (GraphPad Software)."}, "H3K27me3 in SW982 cells": {"test_system": "H3K27me3 in SW982 cells", "test": "H3K27 methylation alterations, ELISA of extracted histones", "format": "cell-based, human", "conditions": "96 hours treatment", "method": "as §1, §2"}}, "data": [{"smiles": "CCN(c1cc(-c2ccc(CN3CCOCC3)cc2)cc(C(=O)NCc2c(C)cc(C)[nH]c2=O)c1C)C1CCOCC1", "note": "[Compound A]", "values": [{"measurement": "ratio of H3K27me3/total H3 (ratio to control)", "setting": "[1]", "result": "decreased"}, {"measurement": "ratio of H3K27me3/total H3 (ratio to control)", "setting": "H3K27me3 in SW982 cells", "result": "decreased"}]}]}
